Source: ChEMBL document CHEMBL1143687, “Synthesis of analogues of a flexible thiopyrylium photosensitizer for purging blood-borne pathogens and binding mode and affinity studies of their complexes with DNA” (Bioorg Med Chem, 2007)

Columns and labels:
[1] = Partition coefficient, log P by shake flask method; format: physicochemical; conditions: octanol/water
[2] = Binding affinity to M13mp19 DNA by spectrophotometric titration method
DNA [3] = test: Binding affinity to calf thymus DNA by spectrophotometric titration method; format: nucleic-acid assay; conditions: Bos taurus
Escherichia coli = test: Binding affinity to pUC19 DNA assessed as drug concentration to induce plasmid re-supercoiling by topoisomerase 1 DNA unwinding assay
DNA [4] = test: Binding affinity to calf thymus DNA by isothermal titration calorimetry; format: nucleic-acid assay; conditions: Bos taurus

logP [1]	Kb [2]	Kb (DNA [3])	Kb (Escherichia coli)	Kb (DNA [4])	Structure (SMILES)
1.63	7.58 10^4/M				CCCCc1cc(-c2ccc(N(C)C)cc2)cc(-c2ccc(N(C)C)cc2)[s+]1
0.82	3.47 10^4/M	5 10^4/M	45 10^6/M	2.4 10^5/M	CCCc1cc(-c2ccc(N(C)C)cc2)cc(-c2ccc(N(C)C)cc2)[s+]1
1.51	0.91 10^4/M	10.1 10^4/M	23 10^6/M	4.2 10^5/M	CN(C)c1ccc(-c2cc(-c3ccc(N(C)C)cc3)[s+]c(C(C)(C)C)c2)cc1

Continued, compound first:

Structure (SMILES)	logP [1]	Kb [2]	Kb (DNA [3])	Kb (Escherichia coli)	Kb (DNA [4])
CC(C)c1cc(-c2ccc(N(C)C)cc2)cc(-c2ccc(N(C)C)cc2)[s+]1	0.23	1.17 10^4/M			
CCc1cc(-c2ccc(N(C)C)cc2)cc(-c2ccc(N(C)C)cc2)[s+]1	0.13	1.8 10^4/M			
CN(C)c1ccc(-c2cc(-c3ccc(N(C)C)cc3)[se+]c(C(C)(C)C)c2)cc1	1.57	2.5 10^4/M	8.7 10^4/M	22 10^6/M	3.9 10^5/M
Cc1cc(-c2ccc(N(C)C)cc2)cc(-c2ccc(N(C)C)cc2)[s+]1	0.6	6.1 10^4/M	5.2 10^4/M	66 10^6/M	1.7 10^5/M
